Test results taken from patent US8367727B2, “Method of using abscisic acid to treat diseases and disorders” (priority 2006, dated 2013).
Marks after values point to notes of the source that are not given here.

What was measured:
[1] = test system: db/db mice; experiment: Fasting blood glucose in db/db mice fed high-fat diets for 36 days; assay type: in vivo; details: day 36
Description: Four week-old, male BKS.Cg-+Lepr^db/+Lepr^db/OlaHsd (db/db) mice were purchased from Harlan Laboratories (Indianapolis, Ind.) and maintained at the animal facilities at Virginia Polytechnic Institute and State University in a room maintained at 75° F., with a 12:12 h light-dark cycle starting from 6:00 AM. All experimental procedures were approved by the Institutional Animal Care and Use Committee of Virginia Polytechnic Institute and State University and met or exceeded requirements of the Public Health Service/National Institutes of Health and the Animal Welfare Act.
Experiment 1: mice (n=25) were fed high-fat (>40% energy from fat), isocaloric, isonitrogenous diets containing 0, 100, 200, 400, and 800 mg of a racemic (±) ABA mixture/kg diet for 36 days (Table 1) (Sigma). These doses were chosen based on the standard concentrations of TZDs utilized in the treatment of NIDDM. The mice were weighed and their food intake was recorded daily. On day 36 of the study fasted mice (12 h) were bled through the caudal vein and fasting blood glucose concentrations were determined. To investigate the ability of ABA to normalize glucose concentrations, an intraperitoneal glucose tolerance test (IPGTT) was performed on day 36 on the fasted mice. Briefly, mice were bled at 0, 10, 25, and 45 minutes following the administration of glucose (2 g/kg) for measurement of plasma glucose levels. […] Weights were recorded for WAT, interscapular brown adipose tissue (BAT), and liver.
Experiment 2: The ABA dose utilized (100 mg ABA/kg) was based on the results obtained from the IPGTT of the ABA titration study (i.e., Experiment 1). Mice in experiment 2 were fed high-fat diets containing 0 or 100 mg ABA/kg for 36 days. Their body weights and food intake was recorded daily, and blood was collected on day 36 of the study during an IPGTT. This IPGTT included one additional 100 minutes time point. […] Weights were recorded for abdominal WAT, BAT, and liver.
Experiment 1 was a dose-titration study, where we fed 4-week old db/db mice (n=25) diabetogenic, high fat diets containing either 0, 100, 200, 400, or 800 mg racemic ABA mixture/kg diet. […] These in vivo results are in agreement with the transfection findings showing no difference in PPAR γ transactivation between 10 and 50 μM ABA.

[2] = test system: lymphocytes derived from the spleen; experiment: Anti-CD3-induced proliferation of spleen-derived lymphocytes; assay type: cell-based; details: ABA-fed mice (controls 30.12)
[3] = test system: db/db mice; experiment: Liver histology, hepatic steatosis by NASH scoring method; assay type: in vivo; details: day 36, P<0.02
Description: Hepatic and adipose sections were fixed in 10% buffered neutral formalin, embedded in paraffin, cut at thicknesses of 7 microns and later stained with hematoxylin and eosin (H&E) for histological examination of adipocyte hypertrophy and inflammatory lesions. Hepatic sections were scored based on the amount of lipodystrophy observed according to the Nonalcoholic steatohepatitis (NASH) scoring method, with a score of 0 signifying <5% of the cells contain lipid droplets and a score of 4 signifying that >75% of the cells contained lipids and a magnification of 400× (23). The final score was the average of five randomly chosen fields. The area of adipocytes from WAT was analyzed using Sigma Pro® 5.0 software at a magnification of 100×, and macrophage infiltration was determined by averaging the number of macrophages observed in five different fields at 400×.

[4] = test system: colon inflammatory gene expression; experiment: Colon gene expression by real-time quantitative PCR, DSS colitis; assay type: in vivo, mice
Description: Complementary DNA (cDNA) concentrations for genes of interest were examined by real-time quantitative PCR using an iCycler IQ System and the iQ SYBR green supermix (Bio-Rad). A standard curve was generated for each gene using 10-fold dilutions of purified amplicons starting at 5 pg of cDNA and used later to calculate the starting amount of target cDNA in the unknown samples. SYBR green I is a general double-stranded DNA intercalating dye and may therefore detect nonspecific products and primer/dimers in addition to the amplicon of interest. In order to determine the number of products synthesized during the real-time PCR, a melting curve analysis was performed on each product. Real-time PCR was used to measure the starting amount of nucleic acid of each unknown sample of cDNA on the same 96-well plate. Results are presented as starting quantity of target cDNA (picograms) per microgram of total RNA.

[5] = test system: MCP-1 promoter; experiment: MCP-1 promoter luciferase reporter in 3T3-L1 pre-adipocytes; assay type: cell-based
Description: 3T3-L1 cells (American Type Culture Collection, Manassas, Va.) were grown in 24-well plates in DMEM high glucose medium (Invitrogen, Carlsbad, Calif.) containing 10% fetal bovine serum (FBS) until 60-70% confluence. Before transfection, the medium was changed to 1% FBS. The cells cultured in 24-well plates were co-transfected with 0.8 μg plasmid DNA and 1 ng of pRL reporter control plasmid per well using F-1 transfection reagents (Targeting Systems, Santee, Calif.) according to the manufacturer's protocol. Transfection efficiencies were determined by cotransfecting the cells with a pcDNA™ 3.1/His/lacZ control vector at 24 h. The transfected cells were then treated with either a racemic ABA mixture (12.5 μM; Sigma) or rosiglitazone (1 μM; Cayman Chemicals, Ann Arbor, Mich.) for 24 hours. Designated wells were also treated with the PPAR γ antagonist GW9662 (30 μM; Cayman Chemicals). Transfected cells were harvested in reporter lysis reagent. Luciferase activity, normalized to pRL activity in the cell extracts was determined by using the dual luciferase reporter assay system (Promega, Madison, Wis.) in a TD-20/20 Single-Tube Luminometer (Turner Biosystems, Sunnyvale, Calif.). Relative luciferase activity (RLA) was calculated as a ratio of the chemiluminescence 10 seconds after the Luciferase Assay Reagent II (Promega) was added over the chemiluminescence 10 seconds after the Stop&Glo Reagent (Promega).
To further examine the effect of ABA on MCP-1 transactivation, 3T3-L1 preadipocytes were transfected with a MCP-1 promoter luciferase reporter construct and also cotransfected with a pCMX PPAR γ expression plasmid to increase endogenous PPAR γ activity. Cells were then treated with ABA (12.5 μM), rosiglitazone (1 μM), the PPAR γ antagonist GW9662 (30 μM), or a combination of agonist and inhibitor.

[6] = test system: dextran sodium sulfate (DSS)-induced colitis; experiment: DSS-induced colitis in C57BL/6J (wt) and PPAR γ flfl; CD4 Cre+ mice; assay type: in vivo
Description: Eight to twelve week old C57BL/6J (n=16) and PPAR γ flfl; CD4 cre+(n=20) mice were housed at the animal facilities at Virginia Polytechnic Institute and State University in a room maintained at 75° F., with a 12:12 h light-dark cycle starting from 6:00 AM. All experimental procedures were approved by the Institutional Animal Care and Use Committee of Virginia Polytechnic Institute and State University and met or exceeded requirements of the Public Health Service/National Institutes of Health and the Animal Welfare Act. C57BL/6J mice were fed AIN-93G-based diets with or without 100 mg/kg of a racemic ABA mixture for 35 days prior to induction of colitis with water containing 2.5% dextran sodium sulfate (DSS), 36,000-44,000 mol wt (ICN Biomedicals, Aurora, Ohio). After the DSS challenge mice were weighed on a daily basis and examined for clinical signs of disease associated with colitis (i.e., perianal soiling, rectal bleeding, diarrhea, and piloerection). For the DSS challenge, the disease activity indices and rectal bleeding scores were calculated using a modification of a previously published compounded clinical score (50). […] Spleen and mesenteric lymph nodes (MLN) were scored based on size and macroscopic inflammatory lesions (0-3), excised, and then crushed to produce single-cell suspensions for flow cytometry.

CC1=CC(=O)CC(C)(C)C1(O)/C=C/C(C)=C\C(=O)O (racemic) [ABA, abscisic acid]
fasting blood glucose (FBG) concentrations versus control diet ([1]; 100 to 800 mg ABA/kg diet): significantly lower | Fasting glucose ([1]; Experiment 1, 100 mg ABA/kg diet): 219.6^b mg/dL | Fasting glucose ([1]; Experiment 1, 200 mg ABA/kg diet): 210.2^b mg/dL | Fasting glucose ([1]; Experiment 1, 400 mg ABA/kg diet): 185.6^a mg/dL | Fasting glucose ([1]; Experiment 1, 800 mg ABA/kg diet): 202.0^b mg/dL | Fasting glucose ([1]; Experiment 2, 100 mg ABA/kg diet): 190.7^b mg/dL | stimulation index, anti-CD3-induced proliferation [2]: 8.55 | hepatic steatosis (NASH scoring) [3]: significantly mitigated | colonic expression of E-selectin ([4]; ABA-supplementation, DSS): significantly lowered | colonic expression of ICAM-1 ([4]; ABA-supplementation, DSS): no affect | colonic expression of MAdCAM-1 ([4]; ABA-supplementation, DSS): significantly lowered | colonic expression of PECAM-1 ([4]; ABA-supplementation, DSS): no affect | colonic expression of VCAM-1 ([4]; ABA-supplementation, DSS): significantly lowered | colonic IL-6 ([4]; ABA-treated mice): significantly attenuated levels | colonic MMP-9 ([4]; ABA-treated mice): significantly attenuated levels | colonic iNOS ([4]; ABA-treated mice): significantly attenuated levels | colonic PPAR γ, CD36 and FABP4 expression ([4]; colons of ABA-fed mice): Neither colonic PPAR γ nor its responsive genes CD36, or FABP4 were significantly affected | MCP-1 promoter activity ([5]; ABA 12.5 μM, rosiglitazone 1 μM, co-transfection with PPAR γ expression vector): significantly enhanced the ability of both ABA and rosiglitazone to inhibit MCP-1 promoter activity | effects on MCP-1 transactivation under cotreatment with antagonist ([5]; plus GW9662 30 μM): significantly inhibited by cotreatment with GW9662 | improvements in disease activity and inflammation ([6]; CD4cre mice lacking PPAR γ in CD4+ T cells): not present in the CD4cre mice | disease activity and macroscopic inflammation ([6]; wild-type (wt) mice): significantly reduced disease activity and macroscopically observable inflammation
